Assay results as given in article PMC12243099, “Thieno[2,3-b]pyridine compounds potently inhibit prostate cancer growth and motility” (Endocrine Oncology, 2025).

Columns and labels:
LNCaP = experiment: Crystal violet proliferation assay, LNCaP; assay type: cell-based; conditions: AR positive, 72 h treatment, mean
Experimental: (§1) Cells were seeded at a density of 2 × 10^4 in 96-well plates and left to adhere overnight before treatment with the inhibitors. After 72 h of treatment, cells were fixed in 2% paraformaldehyde for 1 h, washed 3× with ddH2O and left to dry. 0.04% crystal violet (dissolved in ddH2O) was added to each well and the plates incubated for 1 h. The plates were again washed 3× with ddH2O and left to dry. Crystal violet was solubilised with 10% acetic acid (1 h at room temperature with rocking) and the optical density of each well measured at 570 nm with a plate reader (CLARIOstar, BMG Labtech, Germany).
(§2) (A) The non-tumorigenic controls PNT1A and BPH1, and prostate cancer cell lines LNCaP, C42, C42B, 22RV1, DU145 and PC3 were seeded 24 h before treatment with a dose range of the thieno[2,3-b]pyridine compounds (DJ97, DJ144, DJ145, DJ154 and DJ160). After 72 h of treatment, cells were fixed, stained with crystal violet and absorbance measured using a spectrophotometer microplate reader (FLUOstar Omega) at 490 nm. Mean ± SE of three independent repeats (six replicates for each concentration per experiment). (B) Western blotting was performed on lysates from the different cell lines and membranes probed with antibodies specific for PLCγ1, PLCγ2, AR and ⍺-tubulin. (C) PC3 cells were seeded in 10 cm plates and treated with a dose range of DJ160 for 24 h. Cells were collected and PLC activity measured, and enzymatic activity calculated. Mean of 3 repeats ± SD. TEXT PRINTED IN THE PICTURE: (C) DJ160: PLC activity (mol/min): 0.19 ± 0.005 (DJ160 (μM): 0); PLC activity (mol/min): 0.19 ± 0.005 (DJ160 (μM): 0.01); PLC activity (mol/min): 0.17 ± 0.005 (DJ160 (μM): 0.1); PLC activity (mol/min): 0.23 ± 0.004 (DJ160 (μM): 1); PLC activity (mol/min): 0.22 ± 0.010 (DJ160 (μM): 10)

DU145 = experiment: Crystal violet proliferation assay, DU145; assay type: cell-based; conditions: Homo sapiens, DU-145; DU145, AR negative; 72 h treatment; mean
Experimental: as §1, §2

22RV1 = experiment: Crystal violet proliferation assay, 22RV1; assay type: cell-based; conditions: Homo sapiens; 22RV1, AR positive; 72 h treatment; mean
Experimental: as §1, §2

PNT1A = experiment: Crystal violet proliferation assay, PNT1A; assay type: cell-based; conditions: Homo sapiens, non-tumorigenic, 72 h treatment, mean
Experimental: as §1, §2

C42B = experiment: Crystal violet proliferation assay, C42B; assay type: cell-based; conditions: AR positive, 72 h treatment, mean
Experimental: as §1, §2

BPH1 = experiment: Crystal violet proliferation assay, BPH1; assay type: cell-based; conditions: BPH1, non-tumorigenic, 72 h treatment, mean; for IC50: Homo sapiens, BPH-1
Experimental: as §1, §2

PC3 = experiment: Crystal violet proliferation assay, PC3; assay type: cell-based; conditions: PC3, AR negative, 72 h treatment, mean
Experimental: as §1, §2

C42 = experiment: Crystal violet proliferation assay, C42; assay type: cell-based; conditions: C42, AR positive, 72 h treatment, mean
Experimental: as §1, §2

breast cancer cell lines = conditions: across various breast cancer cell lines; cited from earlier work
PLC = PLC activity assay in treated PC3 cells; assay type: cell-based; conditions: 24 h; for PLC activity: mean of 3 repeats ± SD, 0 μM control 0.19 ± 0.005
Experimental: PC3 cells were grown in 10 cm dishes and treated with different concentrations of DJ160 for 24 h. Cells were collected and enzymatic activity quantified using a PLC Activity Assay Kit (Sigma Aldrich), following the manufacturer’s instructions.
as §2

PC3 cells [1] = experiment: Cell cycle analysis (PI staining, flow cytometry); assay type: cell-based; conditions: 1 μM, 24 h
Experimental: Cells were seeded in 12-well plates, incubated overnight and treated with the inhibitors. The cells were incubated for 72 h before harvesting. Cells were pelleted (200 g, 5 min) and washed with PBS. The wash was removed and cells fixed with 70% EtOH, added dropwise with agitation. The cells were incubated at 4°C overnight, pelleted, washed with PBS and resuspended in PBS containing PI and RNase A, as previously described ([Brooke et al. 2011]). The percentage of cells in each phase of the cell cycle was subsequently quantified using an Accuri C6 Flow Cytometer (BD Biosciences, USA).
Figure 3 The thieno[2,3-b]pyridine compounds promote G2/M cell cycle arrest in PC3 cells. PC3 cells were seeded at 30% confluence for 48 h and treated with 1 μM of the compounds (97, 144, 145, 154 and 160) or DMSO for (A) 24, (B) 48 and (C) 72 h. Cells were PI stained and DNA content measured using flow cytometry. The percentage of cells in each phase was calculated and representative histograms generated using the ACCURI C6 software (BD Biosciences). Data are the mean of three independent repeats.

[2] = system: cultured human prostate tumours; experiment: Patient-derived tumour explants, immunohistochemistry of cleaved caspase 3; assay type: cell-based; conditions: explants of four patients, no/minimal apoptosis in patients 1 and 2
Experimental: (§3) Explant experiments were undertaken using published methodology ([Centenera et al. 2018]). Biopsy tissue from prostate cancer patients was immediately placed in ice-cold medium straight from surgery. In the lab, tissue was dissected and seeded onto a sponge (SSP101010-32, Surgispon, Anser Medical) in 24-well plates. The explants were treated with compound 160 (100 nM) or the antiandrogen enzalutamide (10 μM) and incubated at 37°C for 48 h.
The explants were formalin fixed and wax embedded. Immunohistochemistry was performed to investigate the expression of cleaved caspase 3 (Cell Signalling 9661S (1/200)) as a marker of apoptosis. Protein expression was detected using the REAL EnVision Detection System (Peroxidase/DAB, K500711-2, DAKO).
Figure 7 Thieno[2,3-b]pyridine DJ160 inhibits activity in cultured human prostate tumours. Tumours were dissected into 1 mm^3 pieces then treated with the drugs (100 nM DJ160 and 10 μM enzalutamide (ENZA)) or vehicle control (DMSO, VC) and incubated for 48 h. (A) RNA was extracted and qPCR was performed to quantify the expression of PCNA, used as a marker of proliferation. (B) Samples were formalin-fixed and immunohistochemistry performed for cleaved caspase 3 and the number of cells per field counted. Example images for patient 3 are provided (20× magnification).

PC3 cells [3] = experiment: Fluorescent imaging: multinucleation and cell size; assay type: cell-based; conditions: 1 μM, 24 h, no multinucleation without inhibitors
Experimental: Cells were seeded on glass coverslips and incubated overnight before treatment with the compounds. Cells were incubated for 24 h with the thieno[2,3-b]pyridines and fixed with 2% paraformaldehyde for 15 min at RT. Cells were washed 3 times with PBS and 0.1% Triton X-100 in PBS added for 10 min at RT. The washes were repeated and cells blocked with 1% BSA in 0.5% Tween for 30 min. Primary antibody (α-alpha-tubulin, clone B-5-1-2, Sigma Aldrich, USA) was diluted in the block buffer, added to the cells and incubated for 1 h. The cells were washed 3 times with PBS containing 0.5% Tween and secondary antibody applied (anti-mouse Alexa Fluor 568, Abcam, UK). […] To calculate the percentage of cells with multinucleation, ten random fields of view were imaged per slide using low magnification (10×) and the number of cells with more than 1 nucleus counted. Alterations in cell size were quantified using Fiji ([Schindelin et al. 2012]).
Figure 5 The thieno[2,3-b]pyridine compounds promote multinucleation and lead to an increase in cell size. […] Cells were PI stained and DNA content was measured using flow cytometry. […] Confocal microscopy was performed and five random images were taken for each treatment to quantify (C) percentage multinucleation and (D) relative cell size. […]

[4] = system: cultured human prostate tumours; experiment: Patient-derived tumour explants, qPCR of PCNA (proliferation marker); assay type: cell-based; conditions: explants of four patients, 100 nM DJ160, 48 h
Experimental: as §3
Explants were snap frozen until RNA was extracted using a Monarch RNA extraction kit (NEB), following disruption of frozen tissue utilising mechanical disruption and enzymatic digestion with proteinase K. Then, 2 μg of RNA was reverse transcribed using Precision Nanoscript2 RT Kit (Primer Design, UK). Changes in gene expression were measured using SYBR Green Fast Master Mix (Life Technologies, USA) and QuantStudio 7 Flex Real-Time PCR System (Applied Biosystems, USA). […]
Figure 7 Thieno[2,3-b]pyridine DJ160 inhibits activity in cultured human prostate tumours. […] (A) RNA was extracted and qPCR was performed to quantify the expression of PCNA, used as a marker of proliferation. (B) Samples were formalin-fixed and immunohistochemistry performed for cleaved caspase 3 and the number of cells per field counted. […]

## Nc1c(C(=O)Nc2cccc(Br)c2)sc2nc3c(cc12)C(=O)CCC3 [DJ145]
LNCaP; Homo sapiens, 72 h
  IC50: 268 nM
DU145
  IC50: 1960 nM
22RV1
  IC50: 499 nM
PNT1A
  IC50: 708 nM
C42B
  IC50: 230 nM
BPH1
  IC50 (nM): μM range
  IC50: 4360 nM
PC3; Homo sapiens, 72 h
  IC50: 673 nM
C42; C4-2, 72 h
  IC50: 468 nM

## Nc1c(C(=O)Nc2cccc(Cl)c2)sc2nc3c(cc12)C(=O)CCC3 [DJ97]
LNCaP; Homo sapiens, 72 h
  IC50: 482 nM
DU145
  IC50: 1400 nM
22RV1
  IC50: 306 nM
PNT1A
  IC50: 324 nM
C42B
  IC50: 333 nM
BPH1
  IC50 (nM): μM range
  IC50: 3550 nM
PC3; Homo sapiens, 72 h
  IC50: 573 nM
C42; C4-2, 72 h
  IC50: 334 nM

## Nc1c(C(=O)Nc2cccc(Cl)c2)sc2nc3c(cc12)CCCC3 [DJ154]
LNCaP; Homo sapiens, 72 h
  IC50: 452 nM
DU145
  IC50: 660 nM
22RV1
  IC50: 521 nM
PNT1A
  IC50: 902 nM
C42B
  IC50: 512 nM
BPH1
  IC50: 806 nM
PC3; Homo sapiens, 72 h
  IC50: 723 nM
C42; C4-2, 72 h
  IC50: 246 nM

## Cc1c(Cl)cccc1NC(=O)c1sc2nc3c(cc2c1N)C(=O)CCC3 [DJ160]
LNCaP
  IC50: 44.9 nM
LNCaP; Homo sapiens, 72 h
  IC50: < 50 nM
Breast cancer cell lines
  IC50: > 100 nM
PLC; DJ160 0.01 μM
  PLC activity: 0.19 ± 0.005 mol/min
PLC; DJ160 0.1 μM
  PLC activity: 0.17 ± 0.005 mol/min
PLC; DJ160 1 μM
  PLC activity: 0.23 ± 0.004 mol/min
PLC; DJ160 10 μM
  PLC activity: 0.22 ± 0.010 mol/min
PLC; dose range
  effect upon pan-PLC activity: little effect
DU145
  IC50: 83.9 nM
22RV1
  IC50: 100 nM
PNT1A
  IC50: 82.6 nM
C42B
  IC50: 54 nM
BPH1
  IC50: 151 nM
PC3 cells [1]
  G2/M cell cycle arrest: most pronounced effect
PC3; Homo sapiens, 72 h
  IC50: < 50 nM
PC3
  IC50: 46.5 nM
[2]; 100 nM DJ160, 48 h
  cleaved caspase 3-positive cells (apoptosis): increase in the percentage of cleaved caspase-positive cells in patient samples 3 and 4
PC3 cells [3]
  percentage of cells with multinucleation: more than 30%
C42; C4-2, 72 h
  IC50: < 50 nM
C42
  IC50: 29 nM
[4]
  reduction of PCNA expression compared to untreated samples: approximately 80%

## COc1cccc(NC(=O)c2sc3nc4c(cc3c2N)C(=O)CCC4)c1 [DJ144]
LNCaP; Homo sapiens, 72 h
  IC50: 59.4 nM
DU145
  IC50: 271 nM
22RV1
  IC50: 185 nM
PNT1A
  IC50: 238 nM
C42B
  IC50: 150 nM
BPH1
  IC50: 443 nM
PC3 cells [1]
  G2/M cell cycle arrest: most pronounced effect
PC3; Homo sapiens, 72 h
  IC50: 214 nM
C42; C4-2, 72 h
  IC50: 187 nM

## CNC(=O)c1ccc(N2C(=S)N(c3ccc(C#N)c(C(F)(F)F)c3)C(=O)C2(C)C)cc1F [enzalutamide, reference compound]
[2]; 10 μM enzalutamide, 48 h
  cleaved caspase 3-positive cells (apoptosis): increase in the percentage of cleaved caspase-positive cells in patient samples 3 and 4
